Measurements published in PubChem BioAssay AID1963961 (Molecular Pharmacology Branch, DTP, NCI, 2024).
“And” between values parts separate entries of the source, which are not always exact repeats. Identical values can stand only once.

Test system: K98450-129-R-PDC multicell spheroids, viability
Assay: Anticancer human tumor K98450-129-R-PDC patient-derived colon adenocarcinoma cell line growth inhibition [PI3K]
Details: for viability, T/C: stronger effect = lower value
Text: Combinatorial screen of targeted agents with the PI3K inhibitors inavolisib, alpelisib, duvelisib, and copanlisib in multi-cell type tumor spheroids
A high-throughput screen of multi-cell type tumor spheroids was designed to identify active combinations of targeted small molecules and PI3K pathway inhibitors. Complex spheroids include a stromal component modeled by human endothelial cells (HUVEC) and fibroblasts modeled by human mesenchymal stem cells (MSCs). The concentration ranges selected for each drug and investigational agent were based upon clinically achievable concentrations if the clinical Cmax of the agent was known.
Compounds. The drugs and investigational agents: inavolisib (NSC800729), alpelisib (NSC765974), duvelisib (NSC772469), copanlisib (NSC816437), ipatasertib (NSC767898), afuresertib (NSC778305), talazoparib (NSC767125), sapanisertib (NSC764658), selumetinib (NSC741078), tovorafenib (DAY101, NSC766906), vemurafenib (NSC761431), ravoxertinib (NSC781343), sotorasib (NSC818433), MRTX1133 (NSC 836407), abemaciclib (NSC 768073), palbociclib (NSC758247), venetoclax (NSC 766270), SY5609 (NSC837396), enzalutamide (NSC755605), and darolutamide (NSC825331), were obtained from the National Cancer Institute (NCI) Developmental Therapeutics Program Chemical Repository. The FDA-approved anticancer drug set is available from the NCI Developmental Therapeutics Program. […] The stock solutions were prepared in dimethyl sulfoxide (DMSO, Sigma-Aldrich, St. Louis, MO, cat. D2650) at 800-fold the tested concentration and stored at -70 degrees C prior to their use. All drugs and investigational agents were tested over a range starting from a high concentration at or near the clinical Cmax and decreasing in half-log increments. If the clinical Cmax for an agent had not been determined, the highest concentration tested was 10 microM.
Cell Culture. All cells were maintained in an incubator at 37 degrees C and 5% CO2 with 95% humidity. The PDC lines were cultured according to standard operating procedures established by the NCI PDMR (https://pdmr.cancer.gov/sops/default.htm). All PDCs were thawed and cultured in Matrigel-coated flasks prepared with a working solution of 1X Ham's F-12 nutrient mix, without supplementation (Invitrogen, Waltham, MA, cat. 11765054), 100 U/mL penicillin-streptomycin (Invitrogen, cat. 15140122), and 2.5% Matrigel (Corning Inc., Corning, NY, cat. 354248) for the first three passages. The 354836-022-R-J1-PDC, 475296-252-R-J1-PDC, and 997726-040-R-J2-PDC lines were cultured in 6A media, which includes advanced DMEM/F-12 (Thermo Fisher Scientific, cat. 12634028), 10 mM HEPES (Thermo Fisher Scientific, cat. 15630080), 1X GlutaMAX supplement (Thermo Fisher Scientific, cat. 35050061), 0.1 mg/mL primocin (InvivoGen, San Diego, CA, cat. ant-pm-2), 10% defined fetal bovine serum, heat inactivated (HyClone Laboratories Inc., Logan, UT, cat. SH30070.03HI), 50% L-WRN conditioned media (ATCC, cat. CRL-3276), 1.25 mM N-Acetyl-L-cysteine (Sigma-Aldrich, cat. A9165), 10 mM nicotinamide (Sigma-Aldrich, cat. N0636), 1X B-27 supplement (Thermo Fisher Scientific, cat. 17504044), 1X N-2 supplement (Thermo Fisher Scientific, cat. 17502048), and 10 microM Y-27632 dihydrochloride (Tocris Bioscience, Bristol, United Kingdom, cat. 1254). The 624824-186-R-J2-PDC line was cultured in 6C/Colon 1B media, which includes all 6A media components plus 50 ng/mL human EGF recombinant protein (Thermo Fisher Scientific, cat. PHG0311). […]

[1] = curve of first compound, second compound 0.0316 µM
[2] = curve of first compound, second compound 0.1 µM
[3] = curve of first compound, second compound 0.316 µM
[4] = curve of first compound, second compound 1 µM
[5] = curve of first compound, second compound 3.16 µM
[6] = curve of first compound, second compound 10 µM
[7] = second compound 0.0316 µM, first compound 0.000316 µM
[8] = second compound 0.0316 µM, first compound 0.001 µM
[9] = second compound 0.0316 µM, first compound 0.00316 µM
[10] = second compound 0.0316 µM, first compound 0.01 µM
[11] = second compound 0.0316 µM, first compound 0.0316 µM
[12] = second compound 0.0316 µM, first compound 0.1 µM
[13] = second compound 0.1 µM, first compound 0.000316 µM
[14] = second compound 0.1 µM, first compound 0.001 µM
[15] = second compound 0.1 µM, first compound 0.00316 µM
[16] = second compound 0.1 µM, first compound 0.01 µM
[17] = second compound 0.1 µM, first compound 0.0316 µM
[18] = second compound 0.1 µM, first compound 0.1 µM
[19] = second compound 0.316 µM, first compound 0.000316 µM
[20] = second compound 0.316 µM, first compound 0.001 µM
[21] = second compound 0.316 µM, first compound 0.00316 µM
[22] = second compound 0.316 µM, first compound 0.01 µM
[23] = second compound 0.316 µM, first compound 0.0316 µM
[24] = second compound 0.316 µM, first compound 0.1 µM
[25] = second compound 1 µM, first compound 0.000316 µM
[26] = second compound 1 µM, first compound 0.001 µM
[27] = second compound 1 µM, first compound 0.00316 µM
[28] = second compound 1 µM, first compound 0.01 µM
[29] = second compound 1 µM, first compound 0.0316 µM
[30] = second compound 1 µM, first compound 0.1 µM
[31] = second compound 3.16 µM, first compound 0.000316 µM
[32] = second compound 3.16 µM, first compound 0.001 µM
[33] = second compound 3.16 µM, first compound 0.00316 µM
[34] = second compound 3.16 µM, first compound 0.01 µM
[35] = second compound 3.16 µM, first compound 0.0316 µM
[36] = second compound 3.16 µM, first compound 0.1 µM
[37] = second compound 10 µM, first compound 0.000316 µM
[38] = second compound 10 µM, first compound 0.001 µM
[39] = second compound 10 µM, first compound 0.00316 µM
[40] = second compound 10 µM, first compound 0.01 µM
[41] = second compound 10 µM, first compound 0.0316 µM
[42] = second compound 10 µM, first compound 0.1 µM
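Note: spheroids exposed to agents for seven days before read-out.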

With CC(=O)c1c(C)c2cnc(Nc3ccc(N4CCNCC4)cn3)nc2n(C2CCCC2)c1=O + CC(Nc1ncnc2nc[nH]c12)c1cc2cccc(Cl)c2c(=O)n1-c1ccccc1 the IC50 [1] was over 100 nM, the IC50 [2] was over 100 nM and the IC50 [3] was over 100 nM. It also gave an IC50 [4] of over 100 nM, an IC50 [5] of over 100 nM and an IC50 [6] of over 100 nM. It also gave a viability, T/C [7] of 105%, a viability, T/C [8] of 100% and a viability, T/C [9] of 110%. It also gave a viability, T/C [10] of 99%, a viability, T/C [11] of 100% and a viability, T/C [12] of 86.2%. For the same molecule, the viability, T/C [13] was 109%, the viability, T/C [14] was 94.8% and the viability, T/C [15] was 94.2%. The viability, T/C [16] was 96.1%, the viability, T/C [17] was 93.1% and the viability, T/C [18] was 99.3%. It also gave a viability, T/C [19] of 107%, a viability, T/C [20] of 106% and a viability, T/C [21] of 93.7%. For the same molecule, the viability, T/C [22] was 94.8%, the viability, T/C [23] was 101% and the viability, T/C [24] was 81.6%. The viability, T/C [25] was 102%, the viability, T/C [26] was 92.3% and the viability, T/C [27] was 90.2%. It also gave a viability, T/C [28] of 101%, a viability, T/C [29] of 101% and a viability, T/C [30] of 85.8%. For the same molecule, the viability, T/C [31] was 105%, the viability, T/C [32] was 97.2% and the viability, T/C [33] was 87.6%. For the same molecule, the viability, T/C [34] was 94.5%, the viability, T/C [35] was 96.9% and the viability, T/C [36] was 89.9%. For the same molecule, the viability, T/C [37] was 92.4%, the viability, T/C [38] was 96.7% and the viability, T/C [39] was 74.5%. The viability, T/C [40] was 82.2%, the viability, T/C [41] was 103% and the viability, T/C [42] was 72.2%.
For CNC(=O)c1ccc(N2C(=S)N(c3ccc(C#N)c(C(F)(F)F)c3)C(=O)C2(C)C)cc1F, the viability, T/C (compound 0.0316 µM) was 105% (2×) and 88.4% and 94.7%, the viability, T/C (compound 0.1 µM) was 104% (2×) and 91.1% and 96.9% and the viability, T/C (compound 0.316 µM) was 102% (2×) and 88.4% and 109%. The viability, T/C (compound 1 µM) was 102% [middle of 4 runs], the viability, T/C (compound 3.16 µM) was 107% [middle of 4 runs] and the viability, T/C (compound 10 µM) was 113% and 111% (2×) and 90%. It also gave an IC50 (curve of compound) of over 10000 nM.
Cn1ncnc1[C@H]1c2n[nH]c(=O)c3cc(F)cc(c23)N[C@@H]1c1ccc(F)cc1 + Cc1nc(NC(=O)N2CCCC2C(N)=O)sc1-c1ccnc(C(C)(C)C(F)(F)F)c1 gave an IC50 [1] of over 100 nM, an IC50 [2] of over 100 nM and an IC50 [3] of over 100 nM. For the same molecule, the IC50 [4] was over 100 nM, the IC50 [5] was over 100 nM and the IC50 [6] was over 100 nM. The viability, T/C [7] was 110%, the viability, T/C [8] was 108% and the viability, T/C [9] was 109%. The viability, T/C [10] was 97.3%, the viability, T/C [11] was 101% and the viability, T/C [12] was 96.3%. It also gave a viability, T/C [13] of 108%, a viability, T/C [14] of 99.2% and a viability, T/C [15] of 106%. It also gave a viability, T/C [16] of 100%, a viability, T/C [17] of 102% and a viability, T/C [18] of 97.6%. The viability, T/C [19] was 96.5%, the viability, T/C [20] was 99% and the viability, T/C [21] was 99.9%. The viability, T/C [22] was 97.8%, the viability, T/C [23] was 104% and the viability, T/C [24] was 87.3%. For the same molecule, the viability, T/C [25] was 89.4%, the viability, T/C [26] was 98.1% and the viability, T/C [27] was 95.2%. It also gave a viability, T/C [28] of 90.7%, a viability, T/C [29] of 101% and a viability, T/C [30] of 91.9%. The viability, T/C [31] was 85%, the viability, T/C [32] was 89.4% and the viability, T/C [33] was 86.9%. It also gave a viability, T/C [34] of 86%, a viability, T/C [35] of 91.6% and a viability, T/C [36] of 80.3%. The viability, T/C [37] was 72.4%, the viability, T/C [38] was 73.1% and the viability, T/C [39] was 75.7%. The viability, T/C [40] was 71.5%, the viability, T/C [41] was 74.8% and the viability, T/C [42] was 70.2%.
